Results published in ChEMBL document CHEMBL5550207, “Alkaline Phosphatase Activated Near-Infrared Frequency Upconversion Photosensitizers for Tumor Photodynamic Therapy” (J Med Chem, 2024).
Activity calls are given as the source filed them. The calls are words filed in the database; no cut-off is given here.

Assays:
A549 [1] = test: Phototoxicity in human A549 cells assessed as cell viability at upto 20 uM pre-irradiated with 808nm laser 1.5 W/cm2 for 10 mins and measured after 12 hrs by MTT assay relative to control; type: functional; conditions: time 730 min, 12.17 h, up to 20 µM
A549 [2] = test: Antitumor activity against human A549 cells xenografted in BALB/c mouse model assessed as reduction in fluorescence in liver at 300 uM, iv measured after 120 mins; type: functional, organism-based
A549 [3] = test: Cytotoxicity against human A549 cells assessed as survival rate measured after 12 hrs relative to control; type: functional
A549 [4] = test: Antitumor activity against human A549 cells xenografted in BALB/c mouse model assessed as reduction in fluorescence in spleen at 300 uM, iv measured after 120 mins; type: functional, organism-based
A549 [5] = test: Induction of singlet oxygen production in human A549 cells at 10 uM preincubated for 65 mins followed by light irradiation with 808nm laser 1.5 W/cm2 for 10 mins by DCF-DA staining based confocal microscopy analysis; type: functional, cell-based; conditions: time 75.0 min
A549 [6] = test: Antitumor activity against human A549 cells xenografted in BALB/c mouse model assessed as reduction in fluorescence in kidney at 300 uM, iv measured after 120 mins; type: functional, organism-based
A549 [7] = test: Phototoxicity in human A549 cells assessed as reduction in cell viability at 10 uM preincubated for 1 hr followed by light irradiation with 808nm laser 1.5 W/cm2 for 10 mins and measured after 4 hrs in presence of Na3VO4 by Live/Dead dye staining assay; type: functional, cell-based; conditions: time 310.0 min
A549 [8] = test: Antitumor activity against human A549 cells xenografted in BALB/c mouse model assessed as decrease in fluorescence signal at 300 uM, iv measured upto 120 mins; type: functional, organism-based
A549 [9] = test: Antitumor activity against human A549 cells xenografted in BALB/c mouse model assessed as reduction in fluorescence in lung at 300 uM, iv measured after 120 mins; type: functional, organism-based
[10] = Cytotoxicity against human L02 cells assessed as survival rate measured after 12 hrs by MTT assay relative to control; type: toxicity, cell-based; conditions: read-out: Survival
L02 = test: Photosensitization activity against human L02 cells overexpressing ALP assessed as increase in fluorescence intensity at 10 uM pretreated with MgCl2 for 1 hr followed by compound addition by confocal fluorescent imaging based analysis; type: functional, cell-based
HeLa [11] = test: Phototoxicity in human HeLa cells assessed as decrease in survival rate at upto 10 uM pre-irradiated with 808nm laser 1.5 W/cm2 for 10 mins and measured after 12 hrs by MTT assay; type: functional, cell-based; conditions: time 730.0 min
A549 [12] = test: Antimigratory activity against human A549 cells measured upto 18 hrs by wound healing assay; type: functional, cell-based
A549 [13] = test: Photosensitization activity against human A549 cells overexpressing ALP assessed as increase in fluorescence intensity at 10 uM measured upto 60 mins by confocal fluorescent imaging based analysis; type: functional, cell-based
A549 [14] = test: Induction of singlet oxygen production in human A549 cells assessed as increase in fluorescent signal at 10 uM preincubated for 65 mins followed by light irradiation with 808nm laser 1.5 W/cm2 for 10 mins in presence of Na3VO4 by DCF-DA staining based confocal microscopy analysis; type: functional, cell-based; conditions: time 75.0 min
[15] = Toxicity in BALB/c mouse assessed as effect on lung at 300 uM, iv pre-irradiated with 808nm laser 1.5 W/cm2 for 10 mins and measured after 14 days by H and E staining based analysis; type: organism-based; conditions: in vivo, 336 h, time 14 day
HeLa [16] = test: Cytotoxicity against human HeLa cells assessed as survival rate measured after 12 hrs relative to control; type: functional
A549 [17] = test: Phototoxicity in human A549 cells assessed as decrease in survival rate at upto 10 uM pre-irradiated with 808nm laser 1.5 W/cm2 for 10 mins and measured after 12 hrs by MTT assay; type: functional, cell-based; conditions: time 730.0 min
A549 [18] = test: Antitumor activity against human A549 cells xenografted in BALB/c mouse model assessed as inhibition of tumor growth at 300 uM, iv pre-irradiated with 808nm laser 1.5 W/cm2 for 10 mins and measured daily for 14 days; type: functional, organism-based; conditions: time 14.0 day
A549 [19] = test: Photosensitization activity against human A549 cells overexpressing ALP assessed as increase in fluorescence intensity at 10 uM pretreated with Na3VO4 for 1 hr followed by compound addition and measured upto 60 mins by confocal fluorescent imaging based analysis; type: functional, cell-based; conditions: time <= 60.0 […]
[20] = Toxicity in BALB/c mouse assessed as effect on body weight loss at 300 uM, iv pre-irradiated with 808nm laser 1.5 W/cm2 for 10 mins and measured after 14 days by H and E staining based analysis; type: organism-based; conditions: in vivo, 336 h, time 14 day
A549 [21] = test: Phototoxicity in human A549 cells assessed as decrease in survival rate at 10 uM pre-irradiated with 808nm laser 1.5 W/cm2 for 10 mins and measured after 12 hrs by MTT assay relative to control; type: functional; conditions: A549, light or radiation study, 12.17 h, time 730 min, read-out: Survival
[22] = Toxicity in BALB/c mouse assessed as effect on tumor at 300 uM, iv pre-irradiated with 808nm laser 1.5 W/cm2 for 10 mins and measured after 14 days by H and E staining based analysis; type: organism-based; conditions: in vivo, 336 h, time 14 day
[23] = Toxicity in BALB/c mouse assessed as effect on heart at 300 uM, iv pre-irradiated with 808nm laser 1.5 W/cm2 for 10 mins and measured after 14 days by H and E staining based analysis; type: organism-based; conditions: in vivo, 336 h, time 14 day
A549 [24] = test: Antitumor activity against human A549 cells xenografted in BALB/c mouse model assessed as reduction in fluorescence in heart at 300 uM, iv measured after 120 mins; type: functional, organism-based
A549 [25] = test: Induction of apoptosis in human A549 cells under light irradiation with 808nm laser 1.5 W/cm2 for 10 mins by annexin V-FITC/propidium iodide staining based flow cytometry; type: functional, cell-based
[26] = Toxicity in BALB/c mouse assessed as effect on kidney at 300 uM, iv pre-irradiated with 808nm laser 1.5 W/cm2 for 10 mins and measured after 14 days by H and E staining based analysis; type: organism-based; conditions: in vivo, 336 h, time 14 day
[27] = Toxicity in BALB/c mouse assessed as effect on spleen at 300 uM, iv pre-irradiated with 808nm laser 1.5 W/cm2 for 10 mins and measured after 14 days by H and E staining based analysis; type: organism-based; conditions: in vivo, 336 h, time 14 day
[28] = Toxicity in BALB/c mouse assessed as effect on liver at 300 uM, iv pre-irradiated with 808nm laser 1.5 W/cm2 for 10 mins and measured after 14 days by H and E staining based analysis; type: organism-based; conditions: in vivo, 336 h, time 14 day
HeLa [29] = test: Phototoxicity in human HeLa cells assessed as decrease in survival rate at 10 uM pre-irradiated with 808nm laser 1.5 W/cm2 for 10 mins and measured after 12 hrs by MTT assay relative to control; type: functional; conditions: light or radiation study, 12.17 h, time 730 min, read-out: Survival
[30] = Induction of singlet oxygen production of the compound assessed as decrease in DPBF absorbance under laser irradiation with 808nm laser 1.5 W/cm2 for upto 15 mins in presence of alkaline phosphatase; type: physicochemical; conditions: isolated protein, 0.25 h
A549 [31] = test: Phototoxicity in human A549 cells assessed as reduction in cell viability at upto 20 uM preincubated for 1 hr followed by light irradiation with 808nm laser 1.5 W/cm2 for 10 mins and measured after 4 hrs by Live/Dead dye staining assay; type: functional, cell-based; conditions: time 310.0 min
A549 [32] = test: Phototoxicity in human A549 cells assessed as cell viability at 20 uM pre-irradiated with 808nm laser 1.5 W/cm2 for 10 mins and measured after 12 hrs by MTT assay relative to control; type: functional; conditions: A549, light or radiation study, 12.17 h, time 730 min, read-out: Activity
A549 [33] = test: Phototoxicity in human A549 cells assessed as cell viability at 10 uM pre-irradiated with 808nm laser 1.5 W/cm2 for 10 mins and measured after 12 hrs by MTT assay relative to control; type: functional; conditions: A549, light or radiation study, 12.17 h, time 730 min, read-out: Activity

`CC[N+]1=C(/C=C/C2=C3Oc4cc(O)ccc4C=C3CCC2)C(C)(C)c2cc(Br)ccc21.[I-]` showed an Activity (A549 [1]) of over 85%.
For `CC[N+]1=C(/C=C/C2=C3Oc4cc(OP(=O)(O)O)c(Br)cc4C=C3CCC2)C(C)(C)c2cc(Br)ccc21.[I-]`, the Activity (A549 [2]) was “Active”, the Survival (A549 [3]) was over 85% and the Activity (A549 [4]) was “Active”. For the same compound, the Activity (A549 [5]) was “Active”, the Activity (A549 [6]) was “Active” and the Activity (A549 [7]) was “Active”. For the same compound, the Activity (A549 [8]) was “inactive”, the Activity (A549 [9]) was “Active” and the viability at 12 h [10] was over 85%. The Activity (L02) was “Active”, the Activity (HeLa [11]) was “Active” and the Activity (A549 [12]) was “inactive”. For the same compound, the Activity (A549 [13]) was “Active”, the Activity (A549 [14]) was “inactive” and the Activity [15] was “Non-Toxic”. The Survival (HeLa [16]) was over 85%, the Activity (A549 [17]) was “Active” and the AC30 (A549 [18]) was “Active”. The Activity (A549 [19]) was “inactive”, the Activity [20] was “Non-Toxic” and the viability at 10 µM (A549 [21]) was under 40%. The Activity [22] was “Non-Toxic”, the Activity [23] was “Non-Toxic” and the Activity (A549 [24]) was “Active”. The Activity (A549 [25]) was “Active”, the Activity [26] was “Non-Toxic” and the Activity [27] was “Non-Toxic”. The Activity [28] was “Non-Toxic”, the viability at 10 µM (HeLa [29]) was under 40% and the Activity [30] was “Active”.
With `CC[N+]1=C(/C=C/C2=C3Oc4cc(O)c(Br)cc4C=C3CCC2)C(C)(C)c2cc(Br)ccc21` the Activity (A549 [5]) was “Active”, the Activity (A549 [31]) was “Active” and the viability at 20 µM (A549 [32]) was under 20%. The viability at 10 µM (A549 [33]) was 40% and the Activity (A549 [25]) was “Active”.
For `CC[N+]1=C(/C=C/C2=C3Oc4cc(O)c(Br)cc4C=C3CCC2)C(C)(C)c2ccccc21.[I-]`, the Activity (A549 [1]) was over 85%.
For `CC[N+]1=C(/C=C/C2=C3Oc4cc(O)ccc4C=C3CCC2)C(C)(C)c2ccccc21.[I-]`, the Activity (A549 [1]) was over 85%.
